The results in this text go back to patent US10307350B2, “Morphogenetically active amorphous calcium polyphosphate nanoparticles for therapeutic applications” (NanotecMARIN GmbH, priority 2014, dated 2019).

Common to all, as to type: cell-based, mouse
For assay [1], the system named is MC3T3 cells. Put plainly: Cell proliferation / cell viability XTT assay. As to conditions: retinol 0.3 to 30 μM, absence of aCa-polyP-NP, 72 h. As for the experimental part: (§1) Mouse calvaria cells MC3T3-E1 cells (ATCC-CRL-2593) are used for the experiments and cultivated in a-MEM (Gibco—Invitrogen) containing 20% fetal calf serum [FCS] (Gibco). The medium contains 2 mM L-glutamine, 1 mM Na-pyruvate and 50 μg/ml of gentamycin. […] Reaching 80% confluency, the cells are detached using trypsin/EDTA and continuously subcultured at a density of 5·10^3 cells/ml. The cells are seeded at a density of 5·10^3 cells/well. Medium/serum change was every 3 d.
The aCa-polyP-NP are added at the indicated concentration to the cultures, usually 3 μg/ml. Retinol is added in parallel; it is dissolved at 1 mg/ml ethanol and then diluted in DMSO [dimethyl sulfoxide] at the indicated concentrations. […]
Cell proliferation can be determined, for example, by a colorimetric method based on the tetrazolium salt XTT (Cell Proliferation Kit II; Roche). The absorbance is determined at […] and subtracted form the background values (500 nm). In the experiments described in Examples, the viable cells have been determined after 72 h.

Assay [2] relates to collagen type III (COL-III). Put plainly: Collagen expression RT-qPCR in MC3T3-E1 cells, collagen type III. The following applies: single component: 3 μM retinol alone, or polyP sample in the absence of retinol; untreated 0.17±0.02. As to the method:
Mouse calvaria cells MC3T3-E1 cells (ATCC-CRL-2593) are used for the experiments and cultivated in a-MEM (Gibco-Invitrogen) containing 20% fetal calf serum [FCS] (Gibco). The medium contains 2 mM L-glutamine, 1 mM Na-pyruvate and 50 μg/ml of gentamycin. […] Reaching 80% confluency, the cells are detached using trypsin/EDTA and continuously subcultured at a density of 5·10^3 cells/ml. The cells are seeded at a density of 5·10^3 cells/well. Medium/serum change was every 3 d. The aCa-polyP-NP are added at the indicated concentration to the cultures, usually 3 μg/ml. Retinol is added in parallel; it is dissolved at 1 mg/ml ethanol and then diluted in DMSO [dimethyl sulfoxide] at the indicated concentrations. […], Wang […], Kropf […]. […] Acta Biomaterialia 2011; 7:2661-2671) is studied in parallel. […] After a 5 d incubation period the cells were collected and subjected to RT-qPCR analyses. […] The effect of 3 μM retinol on Na-polyP and on different nanoparticles as well as on the retinol/nanospheres was tested in a comparative way. The expression level of collagen type III was determined by RT-qPCR (FIG. 11). The expression values are correlated to the expression of the house-keeping gene GAPDH. […] Then the ratios between the levels in the cells, exposed to retinol or the nanoparticles/nanospheres alone or together, have been calculated and plotted.
In general terms: In qPCR the cycle at which signal appears reflects the starting amount.

Assay [3] concerns MC3T3 cells. As to the kind of experiment: Microscopic density of attached cells after 72 h. The following applies: single component: aCa-polyP-NP 3 μg/ml or retinol 10 μM. As to the method:
as §1
This synergistically-acting effect of the two test components can also be followed microscopically. In the absence of any of the components the density of the MC3T3 cells after the 72 h incubation is only low. […] Likewise low is the number of cells onto the plastic surface if 10 μM retinol is added.

`CC1=C(/C=C/C(C)=C/C=C/C(C)=C/CO)C(C)(C)CCC1` [retinol, all-trans retinol]: the “growth rate of the MC3T3 cells” value in assay [1] was “did not change significantly”. For the same compound, in assay [2], the “collagen type III expression level correlated to GAPDH” value worked out at 0.25±0.03. For the same compound, in assay [3], the “density of the cells attached to the substrate” value is reported as “low”.
